Target: H1047R PIK3CA enzyme (Homo sapiens, UniProt P42336, H1047R)
Assay: ADP-Glo Biochemical PIK3CA Kinase Assay

H1047R PIK3CA enzyme, sequence (P42336 whole entry H1047R): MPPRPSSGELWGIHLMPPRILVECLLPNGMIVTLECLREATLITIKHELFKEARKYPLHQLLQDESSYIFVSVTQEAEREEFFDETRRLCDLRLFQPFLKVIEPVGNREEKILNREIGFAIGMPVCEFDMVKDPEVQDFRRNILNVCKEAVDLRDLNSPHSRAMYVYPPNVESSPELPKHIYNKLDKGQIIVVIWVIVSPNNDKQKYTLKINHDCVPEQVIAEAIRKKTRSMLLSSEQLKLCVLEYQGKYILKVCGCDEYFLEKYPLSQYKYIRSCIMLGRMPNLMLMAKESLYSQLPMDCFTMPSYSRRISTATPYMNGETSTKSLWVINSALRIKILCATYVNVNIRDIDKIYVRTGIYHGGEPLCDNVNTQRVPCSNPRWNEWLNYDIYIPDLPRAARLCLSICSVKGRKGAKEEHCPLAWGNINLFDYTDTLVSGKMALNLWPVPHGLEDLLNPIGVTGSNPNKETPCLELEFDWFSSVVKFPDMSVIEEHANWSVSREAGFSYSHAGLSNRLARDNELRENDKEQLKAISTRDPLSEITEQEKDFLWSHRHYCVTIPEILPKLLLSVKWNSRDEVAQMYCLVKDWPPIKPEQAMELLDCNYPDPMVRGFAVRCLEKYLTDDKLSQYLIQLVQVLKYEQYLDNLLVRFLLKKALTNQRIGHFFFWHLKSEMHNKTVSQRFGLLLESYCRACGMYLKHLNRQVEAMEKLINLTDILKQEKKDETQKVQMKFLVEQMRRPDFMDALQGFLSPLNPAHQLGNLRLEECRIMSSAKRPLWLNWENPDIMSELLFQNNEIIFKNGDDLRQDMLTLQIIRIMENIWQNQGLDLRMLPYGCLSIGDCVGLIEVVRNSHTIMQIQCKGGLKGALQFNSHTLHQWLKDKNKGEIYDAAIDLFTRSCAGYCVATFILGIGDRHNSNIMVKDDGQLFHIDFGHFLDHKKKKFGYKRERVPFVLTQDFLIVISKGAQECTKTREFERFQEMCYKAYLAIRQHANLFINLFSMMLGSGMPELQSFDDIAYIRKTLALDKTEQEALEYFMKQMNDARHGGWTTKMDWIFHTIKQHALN
H1047R PIK3CA enzyme, sequence (P27986 whole entry partner): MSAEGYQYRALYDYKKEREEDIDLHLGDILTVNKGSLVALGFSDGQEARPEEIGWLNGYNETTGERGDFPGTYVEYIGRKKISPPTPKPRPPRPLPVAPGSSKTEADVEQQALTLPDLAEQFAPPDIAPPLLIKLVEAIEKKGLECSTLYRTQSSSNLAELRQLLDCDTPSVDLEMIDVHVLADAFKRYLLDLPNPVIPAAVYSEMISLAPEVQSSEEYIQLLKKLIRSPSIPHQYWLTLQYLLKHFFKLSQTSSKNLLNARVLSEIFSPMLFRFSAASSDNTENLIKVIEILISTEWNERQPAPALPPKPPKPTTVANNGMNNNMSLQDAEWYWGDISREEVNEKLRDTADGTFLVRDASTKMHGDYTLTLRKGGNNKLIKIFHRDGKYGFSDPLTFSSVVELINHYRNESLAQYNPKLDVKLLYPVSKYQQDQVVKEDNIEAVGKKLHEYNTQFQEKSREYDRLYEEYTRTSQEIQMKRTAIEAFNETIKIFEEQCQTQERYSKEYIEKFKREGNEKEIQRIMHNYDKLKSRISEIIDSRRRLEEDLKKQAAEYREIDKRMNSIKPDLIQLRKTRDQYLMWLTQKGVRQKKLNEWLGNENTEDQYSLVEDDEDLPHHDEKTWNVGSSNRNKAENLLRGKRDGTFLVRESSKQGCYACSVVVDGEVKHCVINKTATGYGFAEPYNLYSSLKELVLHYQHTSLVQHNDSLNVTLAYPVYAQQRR

SMILES	IC50
Cc1ccccc1C1NCCc2cccc(NC(=O)c3cc(F)cc(C(F)(F)F)c3)c21 (centres unmarked) [Compound I-1962]	10000 to 100000 nM
O=C1NC(c2cc(F)ccc2Cl)c2c(NC(=O)N3CCCCc4ccccc43)cccc21 (centres unmarked) [Compound I-2306]	10000 to 100000 nM
O=C(Nc1cc(Br)cc2c1C(c1cc(F)ccc1Cl)NC2=O)c1ccnc(C(F)(F)F)c1F (centres unmarked) [Compound I-607]	10000 to 100000 nM
C[C@@H](CCC(F)(F)F)C(=O)Nc1cccc2c1[C@@H](c1cc(F)ccc1Cl)NC2=O [Compound I-2141]	10000 to 100000 nM
O=C1NC(c2cc(F)ccc2Cl)c2c(Nc3c[nH]c4ccccc34)cc(Br)cc21 (centres unmarked) [Compound I-1896]	10000 to 100000 nM
Cc1ccccc1[C@@H]1NC(=O)c2cccc(NC(=O)c3csc4c(F)cccc34)c21 [Compound I-37]	10000 to 100000 nM
O=C1NC(c2cc(F)ccc2Cl)c2c(NC(=O)C3(O)CCCC(C(F)(F)F)C3)cccc21 (mixture of isomers) [Compound I-2088]	10000 to 100000 nM
O=C(Nc1cc(-c2ccc3ncnn3c2)cc2c1[C@@H](c1cc(F)ccc1Cl)NC2=O)c1cc(F)cc(C(F)F)c1 (stereo in doubt) [Compound I-1172]	10000 to 100000 nM
O=C1NC(c2cc(F)ccc2Cl)c2c(CC(=O)N3CCc4ccccc43)cc(-c3ccc4ncnn4c3)cc21 (centres unmarked) [Compound I-1914]	10000 to 100000 nM
Cc1c(-c2cc(NC(=O)c3cc(F)cc(C(F)(F)F)c3)c3c(c2)C(=O)N[C@@H]3c2cc(F)ccc2Cl)ccc2ncnn12 [Compound I-1875]	1000 to 10000 nM
CNc1cc(NC(=O)N2C[C@@](O)(C(F)(F)F)c3cc(F)ccc32)c2c(c1C#N)C(=O)N[C@H]2c1cc(F)ccc1Cl (single isomer, unassigned) [Compound I-2606]	1000 to 10000 nM
N#CCc1ccc(NC(=O)N2C[C@@](O)(C(F)(F)F)c3cc(F)ccc32)c2c1C(=O)N[C@H]2c1cc(F)ccc1Cl (single isomer, unassigned) [Compound I-2616]	1000 to 10000 nM
O=C1NC(c2cc(F)ccc2Cl)c2c(NC(=O)N3C[C@@H](O)[C@@H](O)C3)cc(-c3ccc4ncnn4c3)cc21 (some centres unmarked) [Compound I-1965]	10000 to 100000 nM
O=C1NC(c2cc(F)ccc2Cl)c2c(Nc3nn(C4CC4)c4ccccc34)cc(-c3ccc4ncnn4c3)cc21 (centres unmarked) [Compound I-1809]	1000 to 10000 nM
C[C@@H](O)c1cc(-c2ccc3ncnn3c2)cc2c1[C@@H](c1cc(F)ccc1Cl)NC2=O (single isomer, unassigned) [Compound I-2230]	10000 to 100000 nM
CSc1cc(-c2ccc3ncnn3c2)cc2c1C(c1cc(F)ccc1Cl)NC2=O (centres unmarked) [Compound I-1892]	10000 to 100000 nM
CC(c1ccccc1O)N(C)C(=O)Nc1cc(Br)cc2c1C(c1cc(F)ccc1Cl)NC2=O (centres unmarked) [Compound I-1459]	10000 to 100000 nM
O=C1NCc2c(NC(=O)c3coc4ccc(Cl)cc34)cccc21 [Compound I-402]	10000 to 100000 nM
O=C1NC(c2cc(F)ccc2Cl)c2c(NC(=O)[C@H]3C[C@@H](O)C[C@@H](C(F)(F)F)C3)cc(Br)cc21 (some centres unmarked) [Compound I-2027]	10000 to 100000 nM
C[C@@H](C#N)Cn1cc(-c2cc(NC(=O)N3C[C@@H](O)c4cc(F)ccc43)c3c(c2)C(=O)N[C@@H]3c2cc(F)ccc2Cl)cn1 (single isomer, unassigned) [Compound I-2505]	1000 to 10000 nM
C[C@@H](C#N)Cn1cc(-c2cc(NC(=O)N3C[C@H](O)c4cc(F)ccc43)c3c(c2)C(=O)N[C@H]3c2cc(F)ccc2Cl)cn1 (single isomer, unassigned) [Compound I-2499]	1000 to 10000 nM
O=C1N[C@H](c2cc(F)ccc2Cl)c2c(NC(=O)N3C[C@@H](O)c4cc(F)ccc43)cc(-n3ccnn3)cc21 (single isomer, unassigned) [Compound I-2371]	1000 to 10000 nM
O=C(Nc1cc(Br)cc2c1C(c1cc(F)ccc1Cl)NC2=O)c1cc(F)cc(C2CCC2)c1 (centres unmarked) [Compound I-1351]	1000 to 10000 nM
O=C(Nc1cc(Br)cc2c1[C@@H](c1c(F)cccc1Cl)NC2=O)c1cc(F)cc(C(F)(F)F)c1 [Compound I-679]	1000 to 10000 nM
O=C1NC(c2cc(F)ccc2Cl)c2c(NC(=O)N3CCC4C(C3)C4C(F)(F)F)cc(Br)cc21 (centres unmarked) [Compound I-1756]	1000 to 10000 nM
O=C1NC(c2cc(F)ccc2Cl)c2c(NC(=O)[C@H](O)c3cc(F)cc(F)c3)cc(Br)cc21 (single isomer, unassigned) [Compound I-804]	10000 to 100000 nM
Cn1cc(Br)c(C(=O)Nc2cccc3c2C(c2cc(F)ccc2Cl)NC3=O)n1 (centres unmarked) [Compound I-582]	10000 to 100000 nM

Other lines, results leading:

IC50	SMILES
100 to 500 nM	O=C(Nc1cc(/N=C2\OC[C@@H]3CCCN23)cc2c1C(c1cc(F)ccc1Cl)NC2=O)c1cc(F)cc(C(F)(F)F)c1 (some centres unmarked) [Compound I-2355]
100 to 500 nM	O=C(Nc1cc(CNCc2ccccc2)nc2c1C(c1cc(F)ccc1Cl)NC2=O)c1cc(F)cc(C(F)(F)F)c1 (centres unmarked) [Compound I-444]
1000 to 10000 nM	N[C@]1(C(F)(F)F)CN(C(=O)Nc2cccc3c2[C@@H](c2cc(F)ccc2Cl)NC3=O)c2ccc(F)cc21 (racemic) [Compound I-2471]
100 to 500 nM	Cc1ccccc1C1NC(=O)c2c(N(C)C)ncc(NC(=O)c3nsc4ccccc34)c21 (centres unmarked) [Compound I-143]
1000 to 10000 nM	CN1C[C@@H](COc2cc(NC(=O)c3cc(F)cc(C(F)(F)F)c3)c3c(c2)C(=O)N[C@@H]3c2cc(F)ccc2Cl)CC1=O (single isomer, unassigned) [Compound I-1523]
≤ 100 nM	COc1ccc(-c2cc(NC(=O)c3cc(F)cc(C(F)(F)F)c3)c3c(c2)C(=O)NC3c2cc(F)ccc2Cl)cn1 (centres unmarked) [Compound I-705]
≤ 100 nM	COc1cc2ncnn2cc1-c1cc(NC(=O)c2cc(F)cc(C(F)(F)F)c2)c2c(c1)C(=O)NC2c1cc(F)ccc1Cl (centres unmarked) [Compound I-1700]
≤ 100 nM	COc1nccc(Oc2cc(NC(=O)c3cc(F)cc(C(F)(F)F)c3)c3c(c2)C(=O)NC3c2cc(F)ccc2Cl)n1 (centres unmarked) [Compound I-1148]
≤ 100 nM	O=C(Nc1cc(OC2COC2)cc2c1C(c1cc(F)ccc1Cl)NC2=O)c1cc(F)cc(C(F)(F)F)c1 (centres unmarked) [Compound I-1131]
≤ 100 nM	CN1CC[C@@H](Nc2cc(NC(=O)c3cc(F)cc(C(F)(F)F)c3)c3c(c2)C(=O)NC3c2cc(F)ccc2Cl)C1 (some centres unmarked) [Compound I-312]
100 to 500 nM	O=C(Nc1cc(N2CC3(CCO3)C2)cc2c1C(c1cc(F)ccc1Cl)NC2=O)c1cc(F)cc(C(F)(F)F)c1 (centres unmarked) [Compound I-1310]
≤ 100 nM	O=C(Nc1cc(CNC2CC(F)(F)C2)cc2c1C(c1cc(F)ccc1Cl)NC2=O)c1cc(F)cc(C(F)(F)F)c1 (centres unmarked) [Compound I-349]
1000 to 10000 nM	O=C1N[C@@H](c2cc(F)ccc2Cl)c2c(NC(=O)N3C[C@@H](O)c4c3ccc(F)c4F)cccc21 (single isomer, unassigned) [Compound I-2313]
≤ 100 nM	CC(C)(O)c1cnc2ccc(-c3cc(NC(=O)c4cc(F)cc(C(F)(F)F)c4)c4c(c3)C(=O)NC4c3cc(F)ccc3Cl)cc2c1 (centres unmarked) [Compound I-1540]
≤ 100 nM	O=C(Nc1cc(-c2cc(F)n3ncnc3c2)cc2c1[C@H](c1cc(F)ccc1Cl)NC2=O)c1cc(F)cc(C(F)(F)F)c1 [Compound I-1927]
100 to 500 nM	O=C(Nc1cc(-c2ccn3ccnc3c2)cc2c1[C@@H](c1cc(F)ccc1Cl)NC2=O)c1cc(F)cc(C(F)(F)F)c1 [Compound I-1451]
1000 to 10000 nM	CCC(CC(=O)Nc1cccc2c1C(c1cc(F)ccc1Cl)NC2=O)C(C)C(F)(F)F (centres unmarked) [Compound I-2193]
1000 to 10000 nM	O=C1NC(c2cc(F)ccc2Cl)c2c(NC(=O)c3cc(F)cc4cn[nH]c34)cccc21 (centres unmarked) [Compound I-595]

IC50	SMILES
1000 to 10000 nM	Cn1ccc(-c2cc(NC(=O)c3cc(F)cc(C(F)(F)F)c3)c3c(c2)C(=O)N[C@H]3c2cc(F)ccc2Cl)cc1=O (stereo in doubt) [Compound I-1001]
500 to 1000 nM	O=C(Nc1cc(Br)cc2c1C(c1cc(F)ccc1Cl)NC2=O)c1cc(F)cc(CF)c1 (centres unmarked) [Compound I-1119]
≤ 100 nM	CC(C)(O)CNc1cc(NC(=O)c2cc(F)cc(C(F)(F)F)c2)c2c(c1)C(=O)NC2c1cc(F)ccc1Cl (centres unmarked) [Compound I-730]
≤ 100 nM	O=C1NC(c2cc(F)ccc2Cl)c2c(NC(=O)c3csc4ccccc34)cc(Br)cc21 (centres unmarked) [Compound I-626]
≤ 100 nM	O=C(Nc1cc(NC(=O)C2CCO2)cc2c1C(c1cc(F)ccc1Cl)NC2=O)c1cc(F)cc(C(F)(F)F)c1 (centres unmarked) [Compound I-361]
≤ 100 nM	[2H][C@]1(c2cc(F)ccc2Cl)NC(=O)c2cc(-c3ccc4ncnn4c3)cc(NC(=O)c3cc(F)cc(C(F)(F)F)c3)c21 (single isomer, unassigned) [Compound I-1600]
500 to 1000 nM	Nc1nn(C(=O)Nc2cccc3c2C(c2cc(F)ccc2Cl)NC3=O)c2ccc(F)cc12 (centres unmarked) [Compound I-2431]
≤ 100 nM	CC(C)(O)c1cnc2ccc(-c3cc(NC(=O)c4cc(F)cc(C(F)(F)F)c4)c4c(c3)C(=O)N[C@H]4c3cc(F)ccc3Cl)cc2c1 [Compound I-1604]
≤ 100 nM	COC1CC(Nc2cc(NC(=O)c3cc(F)cc(C(F)(F)F)c3)c3c(c2)C(=O)NC3c2cc(F)ccc2Cl)C1 (single isomer, unassigned) [Compound I-781]
500 to 1000 nM	Cc1ccccc1C1NC(=O)c2c(N(C)C)ncc(NC(=O)c3cc(F)cc(C(F)(F)F)c3)c21 (centres unmarked) [Compound I-243]
500 to 1000 nM	Cc1ccccc1[C@@H]1NC(=O)c2nccc(NC(=O)N3C[C@H](C)c4ccccc43)c21 (single isomer, unassigned) [Compound I-302]
500 to 1000 nM	CC(C)n1cc(-c2cc(NC(=O)c3cc(F)cc(C(F)(F)F)c3)c3c(n2)C(=O)N[C@@H]3c2cc(F)ccc2Cl)ccc1=O [Compound I-650]
≤ 100 nM	CS(=O)(=O)CCn1cc(-c2cc(NC(=O)c3cc(F)cc(C(F)(F)F)c3)c3c(c2)C(=O)NC3c2cc(F)ccc2Cl)cn1 (centres unmarked) [Compound I-1398]
≤ 100 nM	Nc1nc2cc(-c3cc(NC(=O)c4cc(F)cc(C(F)(F)F)c4)c4c(c3)C(=O)NC4c3cc(F)ccc3Cl)ccn2n1 (centres unmarked) [Compound I-1370]
500 to 1000 nM	Cn1cc(-c2cc(NC(=O)c3cc(F)cc(C(F)(F)F)c3)c3c(n2)C(=O)N[C@@H]3c2cc(F)ccc2Cl)cn1 [Compound I-186]
500 to 1000 nM	O=C(Nc1cc(-c2ccc3ncc(F)n3c2)cc2c1[C@@H](c1cc(F)ccc1Cl)NC2=O)c1cc(F)cc(C(F)(F)F)c1 [Compound I-1869]
≤ 100 nM	O=C(Nc1cc(-c2cnc3nccn3c2)cc2c1C(c1cc(F)ccc1Cl)NC2=O)c1cc(F)cc(C(F)(F)F)c1 (centres unmarked) [Compound I-825]
